Assay results published in patent US20060235222A1, “Indole-derivative modulators of steroid hormone nuclear receptors” (ELI LILLY AND COMPANY, priority 2003, published 2006).

What was measured:
human MR = biological target: T1, human MR (Homo sapiens, UniProt P08235); test: Mineralocorticoid Receptor Binding Assay (Method 1), [3H]-aldosterone competition; conditions: 0.5 nM [3H]-aldosterone, human MR expressed in Sf9 cells
T1 construct: The full length human MR gene is cloned from a human kidney or human brain cDNA library; inferred from own knowledge of the pAcHLT vector (N); made in house; host or cells: Sf9 insect cells (baculovirus)
T1 sequence (P08235 1-984): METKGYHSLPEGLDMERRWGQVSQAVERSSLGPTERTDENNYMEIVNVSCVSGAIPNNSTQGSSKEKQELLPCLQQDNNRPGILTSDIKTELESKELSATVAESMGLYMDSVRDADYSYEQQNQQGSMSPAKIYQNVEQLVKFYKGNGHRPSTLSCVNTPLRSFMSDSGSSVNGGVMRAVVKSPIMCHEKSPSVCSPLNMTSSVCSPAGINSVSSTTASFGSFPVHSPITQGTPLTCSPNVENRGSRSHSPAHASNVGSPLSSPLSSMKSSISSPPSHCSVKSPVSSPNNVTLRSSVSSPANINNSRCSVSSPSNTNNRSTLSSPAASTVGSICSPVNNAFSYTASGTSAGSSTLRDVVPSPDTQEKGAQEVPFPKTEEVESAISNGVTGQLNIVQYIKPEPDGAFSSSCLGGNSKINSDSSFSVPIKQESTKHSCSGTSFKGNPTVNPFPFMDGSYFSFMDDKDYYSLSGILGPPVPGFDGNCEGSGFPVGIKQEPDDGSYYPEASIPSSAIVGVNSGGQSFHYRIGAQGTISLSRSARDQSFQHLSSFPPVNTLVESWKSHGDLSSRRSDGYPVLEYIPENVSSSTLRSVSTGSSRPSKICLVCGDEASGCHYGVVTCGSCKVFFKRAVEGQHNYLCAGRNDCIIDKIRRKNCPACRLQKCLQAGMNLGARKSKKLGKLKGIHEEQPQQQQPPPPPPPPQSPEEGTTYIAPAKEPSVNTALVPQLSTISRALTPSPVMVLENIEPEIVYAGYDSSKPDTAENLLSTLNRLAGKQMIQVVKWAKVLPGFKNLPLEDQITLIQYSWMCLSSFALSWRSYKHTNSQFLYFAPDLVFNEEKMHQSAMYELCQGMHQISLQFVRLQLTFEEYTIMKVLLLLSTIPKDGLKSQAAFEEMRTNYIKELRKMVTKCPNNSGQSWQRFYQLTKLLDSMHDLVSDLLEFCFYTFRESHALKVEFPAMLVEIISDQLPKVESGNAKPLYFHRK
How it was run: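 Full-length human MR expressed in Sf9 cells via baculovirus; lysate supernatant (about 20-25 μg protein) incubated with 0.5 nM [3H]-aldosterone and test compound for about 16 h at 4° C. Buffer was Tris/molybdate/phosphate/pyrophosphate with 10% glycerol, pH 7.5; filter-bound complex counted by scintillation.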

glucocorticoid receptor = biological target: T2, glucocorticoid receptor (Homo sapiens, UniProt P04150); test: Glucocorticoid Receptor Binding Assay (Method 1), [3H]-dexamethasone competition, A549 cell extract; conditions: 1.86 nM [3H]-dexamethasone, read-out: GR Ki (nM) Method 1
T2 construct: containing 50-200 ug of A549 cell extract and 1.86 nM; host or cells: A549 human lung epithelial cells
T2 sequence (P04150 1-777): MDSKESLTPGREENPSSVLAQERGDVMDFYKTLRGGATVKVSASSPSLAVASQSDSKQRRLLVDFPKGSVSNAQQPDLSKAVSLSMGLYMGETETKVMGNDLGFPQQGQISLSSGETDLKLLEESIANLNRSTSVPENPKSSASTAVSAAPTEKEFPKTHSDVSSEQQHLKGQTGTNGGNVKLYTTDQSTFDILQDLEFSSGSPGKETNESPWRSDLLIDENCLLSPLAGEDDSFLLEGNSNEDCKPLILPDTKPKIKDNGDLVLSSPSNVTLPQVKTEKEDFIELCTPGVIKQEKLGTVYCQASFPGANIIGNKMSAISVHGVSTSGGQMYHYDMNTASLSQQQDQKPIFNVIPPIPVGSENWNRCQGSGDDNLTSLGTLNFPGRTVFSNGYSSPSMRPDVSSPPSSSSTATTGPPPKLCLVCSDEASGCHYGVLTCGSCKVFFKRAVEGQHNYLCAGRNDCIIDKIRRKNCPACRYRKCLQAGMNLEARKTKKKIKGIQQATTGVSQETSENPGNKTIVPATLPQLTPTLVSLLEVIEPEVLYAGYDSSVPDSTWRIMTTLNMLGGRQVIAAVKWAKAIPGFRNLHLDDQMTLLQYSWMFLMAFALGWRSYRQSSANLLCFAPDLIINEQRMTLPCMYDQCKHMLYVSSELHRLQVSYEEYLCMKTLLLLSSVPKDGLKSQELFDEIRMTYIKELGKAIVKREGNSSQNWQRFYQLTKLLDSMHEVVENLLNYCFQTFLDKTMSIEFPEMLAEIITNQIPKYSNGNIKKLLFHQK
How it was run: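 Receptor source: sonicated extract of human A549 lung epithelial cells in glycerol/Tris-HCl pH 7.2 buffer with sodium molybdate. [3H]-dexamethasone competition run 16 h at 4 °C; unbound radioligand stripped with dextran-coated charcoal (8 min, RT) and receptor-bound radioactivity quantified by scintillation counting.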

Structure (SMILES) | Ki (human MR) [nM] | Ki (glucocorticoid receptor) [nM]
CCCC(C)(c1ccccc1OC)c1c[nH]c2c(NS(C)(=O)=O)cccc12 (stereo not drawn) [Example 44, N-{3-[1-(2-Methoxy-phenyl)-1-methyl-butyl]-1H-indol-7-yl}-methanesulfonamide] | < 500 | < 500
CCCC(C)(c1ccc(OC)cc1)c1c[nH]c2c(NS(C)(=O)=O)cccc12 (stereo not drawn) [Example 45, N-{3-[1-(4-Methoxy-phenyl)-1-methyl-butyl]-1H-indol-7-yl}-methanesulfonamide] | < 500 | < 500
CCCC(C)(c1cccc(OC)c1)c1c[nH]c2c(NS(C)(=O)=O)cccc12 (stereo not drawn) [Example 46, N-{3-[1-(3-Methoxy-phenyl)-1-methyl-butyl]-1H-indol-7-yl}-methanesulfonamide] | < 500 | < 500
CC(C)(c1ccc2ncccc2c1)c1c[nH]c2c(NS(C)(=O)=O)cccc12 [Example 47, N-[3-(1-Methyl-1-quinolin-6-yl-ethyl)-1H-indol-7-yl]-methanesulfonamide] | < 500 | < 500
CCCC(C)(c1ccc(OC)cc1)c1c[nH]c2c(N)cccc12 (stereo not drawn) [Example 50, 3-[1-(4-Methoxy-phenyl)-1-methyl-butyl]-1H-indol-7-ylamine] | < 500 | < 500
O=C(O)Cn1cc(C(c2ccccc2)(c2ccccc2)c2ccccc2)c2ccccc21 [Example 51, (3-Trityl-indol-1-yl)-acetic acid] | < 1000 | < 10000
O=C(O)CCn1cc(C(c2ccccc2)(c2ccccc2)c2ccccc2)c2ccccc21 [Example 52, 3-(3-Trityl-indol-1-yl)-propionic acid] | < 10000 | < 10000
CCC(CC)(c1ccc(C)cc1)c1c[nH]c2c(NS(C)(=O)=O)cccc12 [Example 54, N-[3-(1-Ethyl-1-p-tolyl-propyl)-1H-indol-7-yl]-methanesulfonamide] | < 500 | < 500
COc1ccc(C(C)(C)c2c[nH]c3c(NS(C)(=O)=O)cccc23)cc1 [Example 55, N-{3-[1-(4-Methoxy-phenyl)-1-methyl-ethyl]-1H-indol-7-yl}-methanesulfonamide] | < 500 | < 500
CCC(CC)(c1ccc(Cl)cc1)c1c[nH]c2c(NS(C)(=O)=O)cccc12 [Example 56, N-{3-[1-(4-Chloro-phenyl)-1-ethyl-propyl]-1H-indol-7-yl}-methanesulfonamide] | < 500 | < 500
CCC(CC)(c1ccc(C)cc1F)c1c[nH]c2c(NS(C)(=O)=O)cccc12 [Example 57, N-{3-[1-Ethyl-1-(2-fluoro-4-methyl-phenyl)-propyl]-1H-indol-7-yl}-methanesulfonamide] | < 500 | < 500
CCC(CC)(c1ccc(C)c(C)c1)c1c[nH]c2c(NS(C)(=O)=O)cccc12 [Example 58, N-{3-[1-(3,4-Dimethyl-phenyl)-1-ethyl-propyl]-1H-indol-7-yl}-methanesulfonamide] | < 500 | < 500
CCC(CC)(c1ccc(C)cc1C)c1c[nH]c2c(NS(C)(=O)=O)cccc12 [Example 60, N-{3-[1-(2,4-Dimethyl-phenyl)-1-ethyl-propyl]-1H-indol-7-yl}-methanesulfonamide] | < 500 | < 500
CCC(CC)(c1ccccc1)c1c[nH]c2c(NS(C)(=O)=O)cccc12 [Example 61, N-[3-(1-Ethyl-1-phenyl-propyl)-1H-indol-7-yl]-methanesulfonamide] | < 500 | < 500
CCC(CC)(c1ccc(C(F)(F)F)cc1)c1c[nH]c2c(NS(C)(=O)=O)cccc12 [Example 63, N-{3-[1-Ethyl-1-(4-trifluoromethyl-phenyl)-propyl]-1H-indol-7-yl}-methanesulfonamide] | < 500 | < 500
CCC(CC)(c1ccc(F)c(F)c1)c1c[nH]c2c(NS(C)(=O)=O)cccc12 [Example 64, N-{3-[1-(3,4-Difluoro-phenyl)-1-ethyl-propyl]-1H-indol-7-yl}-methanesulfonamide] | < 500 | < 500
CCC(C)(c1ccc(C)cc1)c1c[nH]c2c(NS(C)(=O)=O)cccc12 (stereo not drawn) [Example 65, N-[3-(1-Methyl-1-p-tolyl-propyl)-1H-indol-7-yl]-methanesulfonamide] | < 500 | < 500
CCc1ccc(C(CC)(CC)c2c[nH]c3c(NS(C)(=O)=O)cccc23)cc1 [Example 66, N-{3-[1-Ethyl-1-(4-ethyl-phenyl)-propyl]-1H-indol-7-yl}-methanesulfonamide] | < 500 | < 500
CCC(CC)(c1ccccc1C)c1c[nH]c2c(NS(C)(=O)=O)cccc12 [Example 67, N-[3-(1-Ethyl-1-o-tolyl-propyl)-1H-indol-7-yl]-methanesulfonamide] | < 500 | < 500
CCC(CC)(c1ccccc1F)c1c[nH]c2c(NS(C)(=O)=O)cccc12 [Example 68, N-{3-[1-Ethyl-1-(2-fluoro-phenyl)-propyl]-1H-indol-7-yl}-methanesulfonamide] | < 500 | < 500
CCCC(CCC)(c1ccc(OC)cc1)c1c[nH]c2c(NS(C)(=O)=O)cccc12 [Example 69, N-{3-[1-(4-Methoxy-phenyl)-1-propyl-butyl]-1H-indol-7-yl}-methanesulfonamide] | < 500 | < 500
CCCC(C)(c1ccccc1)c1c[nH]c2c(NS(C)(=O)=O)cccc12 (stereo not drawn) [Example 70, N-[3-(1-Methyl-1-phenyl-butyl)-1H-indol-7-yl]-methanesulfonamide] | < 500 | < 500
CCC(CC)(c1cccc(C)c1)c1c[nH]c2c(NS(C)(=O)=O)cccc12 [Example 71, N-[3-(1-Ethyl-1-m-tolyl-propyl)-1H-indol-7-yl]-methanesulfonamide] | < 500 | < 500
CCC(CC)(c1cccc(F)c1)c1c[nH]c2c(NS(C)(=O)=O)cccc12 [Example 72, N-{3-[1′-Ethyl-1-(3-fluoro-phenyl)-propyl]-1H-indol-7-yl}-methanesulfonamide] | < 500 | < 500
CCC(C)(c1ccc(F)cc1)c1c[nH]c2c(NS(C)(=O)=O)cccc12 (stereo not drawn) [Example 73, N-{3-[1-(4-Fluoro-phenyl)-1-methyl-propyl]-1H-indol-7-yl}-methanesulfonamide] | < 500 | < 500
CCC(CC)(c1ccc(F)cc1)c1c[nH]c2c([N+](=O)[O-])cccc12 [Example 75, 3-[1-Ethyl-1-(4-fluoro-phenyl)-propyl]-7-nitro-1H-indole] | < 500 | < 500
CC(C)(c1ccc(F)cc1)c1c[nH]c2c(NS(C)(=O)=O)cccc12 [Example 76, N-{3-[1-(4-Fluoro-phenyl)-1-methyl-ethyl]-1H-indol-7-yl}-methanesulfonamide] | < 500 | < 500
